System: brain proteome
Assay: Brain proteomics (DIA LC-MS/MS) after chronic NVS-PAK1-1 100 mg/kg BID PO vs vehicle in 5xFAD mice
Type: in vivo
Details: for NES (gene set enrichment), NVS-PAK1-1 vs vehicle: Young Female
Procedure: A total of 91 brain samples were prepared from mice in this study and analyzed by mass spectrometry proteomics. One third of the mixed‐chopped left hemisphere tissue was homogenized in 8 M urea lysis buffer (8 M urea, 10 mM Tris, 100 mM NaH2PO4, pH 8.5) with HALT protease and phosphatase inhibitor cocktail (Thermo Fisher) and sonicated for three cycles consisting of 5 seconds of active sonication at 30% amplitude, followed by 15 seconds on ice. Samples were then centrifuged for 5 minutes at 15,000 g and the supernatant was transferred to a new tube. Protein concentration was determined by bicinchoninic acid (BCA) assay (Pierce). For protein digestion, 200 µg of each sample was aliquoted and volumes normalized with additional lysis buffer. Samples were reduced with 5 mM DTT at room temperature for 30 minutes, followed by 10 mM iodoacetamide (IAA) alkylation in the dark for another 30 minutes. Lysyl endopeptidase (Wako) at 1:25 (w/w) was added, and digestion allowed to proceed overnight. Samples were then 7‐fold diluted with 50 mM ammonium bicarbonate. Trypsin (Promega) was then added at 1:25 (w/w) and digestion proceeded overnight. The peptide solutions were acidified to a final concentration of 1% (vol/vol) FA and 0.1% (vol/vol) TFA and desalted with a 10 mg HLB column (Oasis). Each HLB column was first rinsed with 1 mL of methanol, washed with 1 mL 50% (vol/vol) acetonitrile (ACN), and equilibrated with 2 × 1 mL 0.1% (vol/vol) TFA. The samples were then loaded onto the column and washed with 2 × 1 mL 0.1% (vol/vol) TFA. Elution was performed with 0.5 mL 50% (vol/vol) ACN. Samples were split into 50 µL and 400 µL aliquots. Residuals from all samples were combined to create a global internal standard pool.
Samples were resuspended in an equal volume of loading buffer (0.1% FA, 0.03% TFA, 1% ACN) and analyzed by LC‐MS/MS. Peptide eluents (1 µg) were separated on a Water's CSH (15 cm × 150 µM internal diameter [ID] with 1.7 µm CSH resin) by a Dionex Ultimate 3000 RSLCnano (Thermo Fisher). Buffer A was water with 0.1% (vol/vol) formic acid, and buffer B was 80% (vol/vol) acetonitrile in water with 0.1% (vol/vol) FA. Elution was performed over a 30 minute gradient. The gradient was from 1% to 99% solvent B. Peptides were monitored on an Orbitrap Fusion Lumos mass spectrometer (Thermo Fisher). Each cycle consisted of one full scan (MS1) performed with an m/z range of 380 to 985 at a 60,000 resolution at standard settings and 30 data independent scans (DIA) in 1.5 seconds. The higher energy collision‐induced dissociation (HCD) tandem scans were collected at 30% collision energy with an isolation of 10 m/z, a resolution of 15,000, an AGC setting of 200% normalized AGC target, and a maximum injection time set to 40 ms.
Raw data files were converted to mzML format for downstream processing using ThermoRawFilerParser v.1.4.4.[30] The data were processed using Data‐Independent Acquisition by Neural Network (DIA‐NN) v.1.9.1.[31] A spectral library was generated using all canonical mouse proteins from UniProt and SwissProt (accessed September 24, 2024) and contaminants from the Common Repository of Adventitious Proteins (cRAP) database [https://www.thegpm.org/crap/]; these contaminant proteins were excluded from normalization and downstream analysis. DIA‐NN was run using parameters specified as follows: precursor charge was set from 1 to 4 and precursor m/z was set from 200 to 5000. Enzyme digestion was set to strict trypsin with 1 allowed missed cleavage, peptide length was set from 7 to 50, and peptide m/z was set from 150 to 3000. The maximum number of variable modifications was set to 3 and methionine oxidation was allowed as a variable modification. Cysteine carbamidomethylation was allowed as a fixed modification. MS1 and MS2 mass accuracy (in ppm) were set using autodetect and the scan window was set using autodetect. The false discovery rate (FDR) threshold was set to 1%. […]

CC(C)NC(=O)N1CC[C@H](NC2=Nc3cc(F)ccc3N(CC(F)F)c3ccc(Cl)cc32)C1 [NVS‐PAK1‐1, (S)‐3‐([2‐chloro‐5‐(2,2‐difluoroethyl)‐8‐fluoro‐5H‐dibenzo[b,e][1,4]diazepin‐11‐yl]amino)‐N‐isopropylpyrrolidine‐1‐carboxamide]
logFC, FAD5X_A_tx vs FAD5X_B_veh (ATP8, Aged M 5xFAD brain): -0.1292
logFC_NVS.PAK1.1_vs_vehicle (Acat2, Young F 5xFAD brain): -0.07095
logFC_NVS.PAK1.1_vs_vehicle (Acly, Young F 5xFAD brain): -0.0659
logFC_NVS.PAK1.1_vs_vehicle (Acly, Young M 5xFAD brain): -0.07659
logFC_NVS.PAK1.1_vs_vehicle (Agk, Young F 5xFAD brain): 0.08371
logFC_NVS.PAK1.1_vs_vehicle (Agl, Young F 5xFAD brain): -0.0869
logFC_NVS.PAK1.1_vs_vehicle (Aldh1l1, Young F 5xFAD brain): -0.1253
logFC_NVS.PAK1.1_vs_vehicle (Anxa6, Young M 5xFAD brain): -0.118
logFC_NVS.PAK1.1_vs_vehicle (App, Young F 5xFAD brain): -0.2576
logFC_NVS.PAK1.1_vs_vehicle (Armcx5, Young M 5xFAD brain): 0.3268
logFC_NVS.PAK1.1_vs_vehicle (Atl2, Aged F 5xFAD brain): -0.08745
logFC_NVS.PAK1.1_vs_vehicle (Atp2b4, Young M 5xFAD brain): 0.1099
logFC_NVS.PAK1.1_vs_vehicle (Atp5if1, Aged F 5xFAD brain): -0.5225
logFC_NVS.PAK1.1_vs_vehicle (Calr, Young F 5xFAD brain): -0.07235
logFC_NVS.PAK1.1_vs_vehicle (Cep170b, Young M 5xFAD brain): 0.1293
logFC_NVS.PAK1.1_vs_vehicle (Cfap61, Young F 5xFAD brain): -0.4846
logFC_NVS.PAK1.1_vs_vehicle (Cfl2, Young F 5xFAD brain): 0.1353
logFC_NVS.PAK1.1_vs_vehicle (Chordc1, Young F 5xFAD brain): -0.1408
logFC_NVS.PAK1.1_vs_vehicle (Ciapin1, Young M 5xFAD brain): -0.1789
logFC_NVS.PAK1.1_vs_vehicle (Cops5, Aged M 5xFAD brain): 0.1116
logFC_NVS.PAK1.1_vs_vehicle (Cox7a2, Aged F 5xFAD brain): -0.07809
logFC_NVS.PAK1.1_vs_vehicle (Dctn3, Young F 5xFAD brain): -0.07573
logFC_NVS.PAK1.1_vs_vehicle (Echdc1, Young F 5xFAD brain): -0.211
logFC_NVS.PAK1.1_vs_vehicle (Eef1b, Young F 5xFAD brain): -0.1102
logFC_NVS.PAK1.1_vs_vehicle (Eef2, Young F 5xFAD brain): -0.07944
logFC_NVS.PAK1.1_vs_vehicle (Ehd3, Aged M 5xFAD brain): 0.04696
logFC_NVS.PAK1.1_vs_vehicle (Eif1, Young F 5xFAD brain): -0.1062
logFC_NVS.PAK1.1_vs_vehicle (Elfn2, Aged M 5xFAD brain): -0.27
logFC_NVS.PAK1.1_vs_vehicle (Fasn, Young F 5xFAD brain): -0.08056
logFC_NVS.PAK1.1_vs_vehicle (Fdps.1, Young F 5xFAD brain): -0.1222
logFC_NVS.PAK1.1_vs_vehicle (Fn3krp, Aged M 5xFAD brain): 0.1203
NES (gene set enrichment), NVS-PAK1-1 vs vehicle (GO:0005740 mitochondrial envelope): 2.24
NES (gene set enrichment), NVS-PAK1-1 vs vehicle (GO:0005743 mitochondrial inner membrane): 2.303
NES (gene set enrichment), NVS-PAK1-1 vs vehicle (GO:0019866 organelle inner membrane): 2.289
NES (gene set enrichment), NVS-PAK1-1 vs vehicle (GO:0031966 mitochondrial membrane): 2.233
logFC_NVS.PAK1.1_vs_vehicle (Gap43, Young F 5xFAD brain): 0.1885
logFC_NVS.PAK1.1_vs_vehicle (Gnb1.1, Aged F 5xFAD brain): -0.6461
logFC_NVS.PAK1.1_vs_vehicle (Gng2, Young M 5xFAD brain): 0.102
logFC, FAD5X_A_tx vs FAD5X_B_veh (HC;Ighg2b, Aged M 5xFAD brain): 0.3576
logFC_NVS.PAK1.1_vs_vehicle (Hnrnpf, Aged F 5xFAD brain): -0.0585
logFC_NVS.PAK1.1_vs_vehicle (Hprt1, Young F 5xFAD brain): 0.09623
logFC_NVS.PAK1.1_vs_vehicle (Hsp90ab1, Young F 5xFAD brain): -0.08556
logFC_NVS.PAK1.1_vs_vehicle (Hsp90b1, Young F 5xFAD brain): -0.1385
logFC_NVS.PAK1.1_vs_vehicle (Hspa8.1, Young F 5xFAD brain): -0.05148
logFC_NVS.PAK1.1_vs_vehicle (Hsph1, Young F 5xFAD brain): -0.0893
logFC_NVS.PAK1.1_vs_vehicle (Idh1, Young F 5xFAD brain): -0.08685
logFC_NVS.PAK1.1_vs_vehicle (Idi1, Young F 5xFAD brain): -0.1582
logFC_NVS.PAK1.1_vs_vehicle (Kctd16, Young M 5xFAD brain): 0.1263
logFC_NVS.PAK1.1_vs_vehicle (Klc1, Young F 5xFAD brain): -0.06729
logFC_NVS.PAK1.1_vs_vehicle (Lcmt1, Young F 5xFAD brain): -0.08416
logFC_NVS.PAK1.1_vs_vehicle (Lcp1, Young F 5xFAD brain): -0.2692
logFC_NVS.PAK1.1_vs_vehicle (Lrfn4, Aged F 5xFAD brain): 0.3404
logFC_NVS.PAK1.1_vs_vehicle (Ly6h, Young M 5xFAD brain): 0.08528
logFC_NVS.PAK1.1_vs_vehicle (Map1lc3a, Young M 5xFAD brain): 0.1055
logFC_NVS.PAK1.1_vs_vehicle (Map7d2, Aged M 5xFAD brain): 0.1103
logFC_NVS.PAK1.1_vs_vehicle (Mark4, Young F 5xFAD brain): 0.2384
logFC_NVS.PAK1.1_vs_vehicle (Mib2, Aged M 5xFAD brain): -0.4263
logFC_NVS.PAK1.1_vs_vehicle (Mipep, Aged F 5xFAD brain): 1.596
logFC_NVS.PAK1.1_vs_vehicle (Myh10, Aged F 5xFAD brain): -1.404
logFC_NVS.PAK1.1_vs_vehicle (Mylk, Aged M 5xFAD brain): -1.455
logFC_NVS.PAK1.1_vs_vehicle (Nck2, Aged M 5xFAD brain): 0.1477
logFC_NVS.PAK1.1_vs_vehicle (Nherf1, Young F 5xFAD brain): -0.1106
logFC_NVS.PAK1.1_vs_vehicle (Nmd3, Young F 5xFAD brain): -0.95
logFC_NVS.PAK1.1_vs_vehicle (Nmt1, Young F 5xFAD brain): -0.1011
logFC_NVS.PAK1.1_vs_vehicle (Nomo1, Young F 5xFAD brain): -0.1733
logFC_NVS.PAK1.1_vs_vehicle (Nrdc, Aged M 5xFAD brain): -0.1746
logFC_NVS.PAK1.1_vs_vehicle (Ntm, Young M 5xFAD brain): 0.1007
logFC_NVS.PAK1.1_vs_vehicle (Pkm, Aged M 5xFAD brain): -0.04674
logFC_NVS.PAK1.1_vs_vehicle (Plpp3, Young F 5xFAD brain): -0.1143
logFC_NVS.PAK1.1_vs_vehicle (Plxna4, Young F 5xFAD brain): 0.1065
logFC_NVS.PAK1.1_vs_vehicle (Pnpo, Young F 5xFAD brain): 0.2
logFC_NVS.PAK1.1_vs_vehicle (Ppp1r21, Young F 5xFAD brain): -0.1088
logFC_NVS.PAK1.1_vs_vehicle (Ptgds, Young F 5xFAD brain): -0.128
logFC_NVS.PAK1.1_vs_vehicle (RTRAF, Young F 5xFAD brain): -0.06356
logFC_NVS.PAK1.1_vs_vehicle (Rab27b, Young F 5xFAD brain): 0.1779
logFC_NVS.PAK1.1_vs_vehicle (Rab33a, Aged M 5xFAD brain): -0.2639
logFC_NVS.PAK1.1_vs_vehicle (Rap2a, Young F 5xFAD brain): 0.09042
logFC_NVS.PAK1.1_vs_vehicle (Rasgef1a, Aged M 5xFAD brain): 0.8766
logFC_NVS.PAK1.1_vs_vehicle (Rbm4b, Aged M 5xFAD brain): -0.3664
logFC_NVS.PAK1.1_vs_vehicle (Robo2, Young M 5xFAD brain): 0.2982
logFC_NVS.PAK1.1_vs_vehicle (Rock2, Aged F 5xFAD brain): 0.0515
logFC_NVS.PAK1.1_vs_vehicle (Rpl34, Young F 5xFAD brain): -0.09945
logFC_NVS.PAK1.1_vs_vehicle (Rps3, Young F 5xFAD brain): -0.04356
logFC_NVS.PAK1.1_vs_vehicle (S100a1, Young F 5xFAD brain): -0.119
logFC_NVS.PAK1.1_vs_vehicle (Sec14l2, Young F 5xFAD brain): -0.1884
logFC_NVS.PAK1.1_vs_vehicle (Senp3, Young M 5xFAD brain): -0.3344
logFC_NVS.PAK1.1_vs_vehicle (Septin2, Young F 5xFAD brain): -0.1026
logFC_NVS.PAK1.1_vs_vehicle (Septin3, Young F 5xFAD brain): 0.07371
logFC_NVS.PAK1.1_vs_vehicle (Serpinb6, Young F 5xFAD brain): -0.1362
logFC_NVS.PAK1.1_vs_vehicle (Sgip1, Young M 5xFAD brain): 0.06159
logFC_NVS.PAK1.1_vs_vehicle (Snw1, Aged F 5xFAD brain): -0.2022
logFC_NVS.PAK1.1_vs_vehicle (Spag9, Aged F 5xFAD brain): -0.08904
logFC_NVS.PAK1.1_vs_vehicle (Stom, Aged F 5xFAD brain): -0.4369
logFC_NVS.PAK1.1_vs_vehicle (Stom, Young M 5xFAD brain): -0.67
logFC_NVS.PAK1.1_vs_vehicle (Stxbp5, Aged M 5xFAD brain): -0.08024
logFC_NVS.PAK1.1_vs_vehicle (Syngr1, Young M 5xFAD brain): 0.07489
logFC_NVS.PAK1.1_vs_vehicle (Sypl1, Aged M 5xFAD brain): 0.2577
logFC_NVS.PAK1.1_vs_vehicle (Tbc1d24, Young F 5xFAD brain): 0.08048
logFC_NVS.PAK1.1_vs_vehicle (Tkfc, Aged M 5xFAD brain): -0.1852
logFC_NVS.PAK1.1_vs_vehicle (Tom1l2, Aged M 5xFAD brain): 0.07172
logFC_NVS.PAK1.1_vs_vehicle (Txndc16, Young M 5xFAD brain): -1.405
logFC_NVS.PAK1.1_vs_vehicle (Usp54, Aged M 5xFAD brain): 2.652
logFC_NVS.PAK1.1_vs_vehicle (Vasp, Young F 5xFAD brain): 0.6308
logFC_NVS.PAK1.1_vs_vehicle (Vps33b, Aged M 5xFAD brain): -0.1328
logFC_NVS.PAK1.1_vs_vehicle (Wasf3, Young M 5xFAD brain): 0.12
logFC_NVS.PAK1.1_vs_vehicle (Zfp967;Zfp968, Young F 5xFAD brain): -1.398

Source: publication PMC12741935 (Alzheimer's & Dementia, 2025)
